≈ marks a conversion by molar mass, not a printed value.
How the values were obtained:
Type in all cases: cell-based
[1] = tested on: Pseudomonas aeruginosa (ATCC #27853); assay: Broth microdilution MIC, P. aeruginosa
Procedure: (§1) A broth microdilution assay is used to assess the antimicrobial activity of the compounds. Compounds are tested at twofold serial dilutions, and the concentration that inhibits visible growth (OD600 at 10% of control) is defined as the MIC. Microorganisms tested include Staphylococcus aureus (ATCC #29213), Enterococcus faecalis (ATCC #29212), Pseudomonas aeruginosa (ATCC #27853), and Escherichia coli (ATCC #25922). The assay is performed in two growth media, Mueller Hinton Broth and Trypticase Soy Broth.
(§2) A blood (Tsoy/5% sheep blood) agar plate is inoculated from frozen stocks maintained in T soy broth containing 10% glycerol and incubated overnight at 37° C. Colonies are suspended in sterile broth so that the turbidity matches the turbidity of a 0.5 McFarland standard. The inoculum is diluted 1:10 in sterile broth (Mueller Hinton or Trypticase soy) and 195 ul is dispensed per well of a 96-well plate. […]
(§3) After 24 hours of incubation at 37° C., plates are read at OD600 on a Molecular Devices SpectraMax Plus Spectrophotometer. Average OD600 values are computed using SOFTmax Pro Software (Molecular Devices) and MIC values are determined by linear regression analysis using Prism version 3.02 (Graph Pad Software, San Diego). […]

CPT-1 = biological target: T1, CPT-1 (Homo sapiens, UniProt P50416); assay: Carnitine palmitoyltransferase-1 (CPT-1) assay in permeabilized MCF-7 cells; details: at 20 ug/ml
T1 construct: This assay uses permeabilized cells to measure the transfer of [methyl-^14C]L-carnitine; endogenous in cells; host or cells: MCF-7 cells, digitonin-permeabilized
T1 sequence (P50416 1-773): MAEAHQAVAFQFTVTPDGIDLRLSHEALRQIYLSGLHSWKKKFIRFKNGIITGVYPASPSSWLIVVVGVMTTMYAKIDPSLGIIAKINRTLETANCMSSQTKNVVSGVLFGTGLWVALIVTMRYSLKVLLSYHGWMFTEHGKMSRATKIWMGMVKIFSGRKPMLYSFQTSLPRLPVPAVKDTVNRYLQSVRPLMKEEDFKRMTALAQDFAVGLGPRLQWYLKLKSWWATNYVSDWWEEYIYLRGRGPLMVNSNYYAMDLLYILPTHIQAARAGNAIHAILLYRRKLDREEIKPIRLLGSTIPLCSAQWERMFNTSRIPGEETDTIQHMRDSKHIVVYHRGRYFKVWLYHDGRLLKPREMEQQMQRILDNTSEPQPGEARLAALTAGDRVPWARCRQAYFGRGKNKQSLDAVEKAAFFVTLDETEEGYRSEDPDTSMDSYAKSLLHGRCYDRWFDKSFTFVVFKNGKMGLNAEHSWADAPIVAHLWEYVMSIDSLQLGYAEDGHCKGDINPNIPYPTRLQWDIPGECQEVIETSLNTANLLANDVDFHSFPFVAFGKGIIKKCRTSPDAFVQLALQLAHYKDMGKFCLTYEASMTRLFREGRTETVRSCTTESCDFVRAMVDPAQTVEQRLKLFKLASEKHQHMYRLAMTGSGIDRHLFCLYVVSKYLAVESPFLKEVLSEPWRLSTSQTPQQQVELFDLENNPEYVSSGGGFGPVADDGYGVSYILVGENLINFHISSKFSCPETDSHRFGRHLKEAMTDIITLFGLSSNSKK
Procedure: Carnitine Palmitoyltransferase-1 (CPT-1) Assay
CPT-1 catalyzes the ATP dependent transfer of long-chain fatty acids from acyl-CoA to acyl-carnitine that is inhibited by malonyl-CoA. As CPT-1 requires the mitochondrial membrane for activity, enzyme activity is measured in permeabilized cells or mitochondria. This assay uses permeabilized cells to measure the transfer of [methyl-^14C]L-carnitine to the organically soluble acyl-carnitine deriviative.
MCF-7 cells are plated in DMEM with 10% fetal bovine serum at 10^6 cells in 24-well plates in triplicate for controls, drugs, and malonyl-CoA. Two hours before commencing the assay, drugs are added at the indicated concentrations made from stock solutions at 10 mg/ml in DMSO, vehicle controls consist of DMSO without drug. Since malonyl-CoA cannot enter intact cells, it is only added in the assay buffer to cells that have not been preincubated with drugs. Following overnight incubation at 37° C., the medium is removed and replaced with 700 μl of assay buffer consisting of: 50 mM imidazole, 70 mM KCl, 80 mM sucrose, 1 mM EGTA, 2 mM MgCl2, 1 mM DTT, 1 mM KCN, 1 mM ATP, 0.1% fatty acid free bovine serum albumin, 70 μM palmitoyl-CoA, 0.25 μCi [methyl-^14C]L-carnitine, 40 μg digitonin with drug, DMSO vehicle control, or 20 μM malonyl-CoA. […] The butanol phase is counted by liquid scintillation and represents the acylcarnitine derivative.

[2] = tested on: Staphylococcus aureus (ATCC #29213); assay: Broth microdilution MIC, S. aureus
Procedure: as §1, §2, §3

## C=CCC1(CC=C)C(=O)SC(C)(CCCCCCCC)C1=O (racemic) [Compound 4, 3,3-Diallyl-5-methyl-5-octyl-thiophene-2,4-dione]
[1]; Mueller Hinton Broth
  PSAE/MH (MIC): Neg
[1]; Trypticase Soy Broth
  PSAE/Tsoy: Neg
CPT-1
  CPT I Stim: 125% of control
[2]; Mueller Hinton Broth
  SA/MH (MIC): Neg
[2]; Staphylococcus aureus, ATCC29213, Trypticase Soy Broth, read-out: SA/Tsoy (MIC)
  MIC: 98 µg/mL (≈ 304 µM)
